Data from patent US12624068B2, “Exon skipping by peptide nucleic acid derivatives” (OliPass Corporation, priority 2016, dated 2026).
{Fethoc} = N-terminal Fethoc cap; [C(1O2)] = modified PNA monomer acting as cytosine, C(pOq) type, 1O2; [A(5)] = modified PNA monomer acting as adenine, A(p) type, p=5; [G(5)] = modified PNA monomer acting as guanine, G(p) type, p=5; {NH2} = C-terminal amide

Columns and labels:
[1] = test system: sodium current in rat L5 DRG neuronal cells; assay: Manual patch clamp sodium current in rat L5 DRG neuronal cells; format: cell-based; settings: rat L5 DRG neuronal cells (L5/L6 ligation), small size, 100 zM, 4 hours
Procedure: “SCN-ASO 30” was evaluated for its ability to inhibit the sodium current in rat L5 DRG neuronal cells stimulated with L5/L6 ligation as provided below.
[Preparation of DRG Neuronal Cells] Male SD rats (6 weeks old) were subjected to tight “L5/L6 ligation”. 7 days later, rats were anesthetized with zoletil/rompun for the extraction of L5 DRG of the ligated side. […]

[2] = test system: full-length SCN9A mRNA; assay: SCN9A qPCR by cDNA synthesis with random hexamers in rat L5 DRG cells; format: cell-based; settings: 24 hours
Procedure: “SCN-ASO 30” was evaluated by SCN9A qPCR for its ability to inhibit the expression of the SCN9A mRNA in rat L5 DRG cells. Total RNA was prepared as described in “SCN9A Example 15”, and subjected to cDNA synthesis using random hexamers.
The cDNA solutions were also subjected to qPCR amplification for the GAPDH mRNA. The Ct values of the SCN9A mRNA were normalized against the Ct values of GAPDH mRNA.

[3] = test system: 10-mer complementary DNA; assay: Tm between PNA derivatives and 10-mer complementary DNA (N- or C-terminal); format: binding; settings: uncorrected
Summary of the method: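 4 μM 10-mer PNA with 4 μM complementary 10-mer DNA in pH 7.16 buffer (10 mM sodium phosphate, 100 mM NaCl) was heated at 90 °C for a minute, slowly cooled to ambient, then Tm measured by UV absorbance at 260 nm.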

[4] = test system: Nav1.7 protein; assay: Nav1.7 western blot in rat L5 DRG neuronal cells; format: cell-based; settings: rat DRG neuronal cells (L5/L6 ligation)
Procedure: “SCN-ASO 30” was evaluated for its ability to inhibit the expression of Nav1.7 protein in rat DRG neuronal cells as described below.
[Preparation of DRG Neuronal Cells] Male SD rats (7 weeks old) were subjected to tight “L5/L6 ligation”. 7 days later, 4 rats were anesthetized with zoletil/rompun to sample the L5 DRG of the ligated side. The DRGs were pooled and processed to prepare DRG neuronal cells as described in “SCN9A Example 12”.
[ASO Treatment] DRG neuronal cells were treated with “SCN-ASO 30” at 0 (negative control), 10, 100 or 1,000 zM for 24 hours, and then subjected to lysis for western blot against a Nav1.7 antibody (Cat. No. ab85015, Abcam) probing the C-terminal of the Nav1.7 protein. β-actin was probed for reference.

[5] = test system: AR mRNA; assay: qPCR by SYBR Green for AR mRNA in MCF7 cells; settings: 5 hours
Procedure: [ASO Treatment and RNA Extraction] […] (2 culture dishes per concentration) 5 hours later, total RNA was extracted using “MiniBEST Universal RNA Extraction Kit” according to the manufacturer's instructions (Cat. Number 9767, Takara).
[cDNA Synthesis with OligodT]
The PCR reactions were probed by SYBR Green (Takara, Japan).

[6] = test system: AR protein; assay: AR western blot in MCF7 cells; format: cell-based, human; settings: 10 zM to 30 aM, 48 hours
Procedure: 4 culture dishes for the negative control. 48 hours later, cells were washed 2× with cold PBS, and then subjected to lysis with 200 μL 1× cell lysis buffer (Cat. No. 9803, Cell Signaling Tech) supplemented with 1× protease inhibitors (Cat. No. P8340, Sigma). The lysates were collected in 1.5 mL e-tube. 200 μL of each lysate was mixed with 100 μL 3× sample buffer, and boiled for 5 min. 20 μL of each lysate (4 negative controls and 8 ASO treatment samples) was subjected to electrophoretic separation on a 8% SDS-PAGE gel, and transferred onto a PVDF membrane. The membrane was probed with an anti-AR antibody (Cat. Number 5153, Cell Signaling Tech) and an anti-3-actin antibody (Cat. Number sc4778, Santa Cruz).

[7] = test system: human AR pre-mRNA; assay: AR nested PCR for exon skipping in MCF7 cells; format: cell-based; settings: 3 hours
Procedure: “AR-ASO 1” was evaluated by AR nested PCR for its ability to induce the skipping of exon 5 of the human AR mRNA in MCF7 cells as follows. [Cell Culture & ASO Treatment] MCF7 cells (Cat. Number: HTB-22, ATCC) were maintained in EMEM medium supplemented with 10% FBS, 1% streptomycin/penicillin, and 0.01 mg/mL bovine insulin under 5% CO2 atmosphere at 37° C. Cells grown in 60 mm culture dish were treated with “AR-ASO 1” for 3 hours at 0 (negative control), 3, 30, 300 or 3,000 aM (i.e., 3 fM). [RNA Extraction] Total RNA was extracted using “Universal RNA Extraction Kit” (Cat. No. 9767, Takara) according to the manufacturer's instructions [cDNA Synthesis by One Step RT-PCR] […] NO: 55); and AR-exon 9_reverse: (5'→3') […] [Nested PCR Amplification] Throughout the amplification process, was used a unique amplification technique (touch up as increasing annealing temperature per cycle) that worked efficiently and specifically over a temperature range, rather than at one specific annealing temperature (i.e., conventional PCR method). […] NO: 57); and AR-exon 7n_reverse: (5'→3') […] […] The bands of target size were collected and analyzed by Sanger Sequencing. […] “AR-ASO 1” was evaluated for its exon skipping ability in MCF7 cells grossly showing the morphology of cumulus shape as described in “AR Example 1”, unless noted otherwise. […]

Fethoc-AA(5)G-TG(5)T-A(5)CC(1O2)-TA(5)A-A(5)G-NH2 (AAGTGTACCTAAAG; all peptide nucleic acid (PNA), [A(5)] at 2, 7, 11, 13, [G(5)] at 5, [C(1O2)] at 9, 5' {Fethoc}, 3' {NH2}; peptide nucleic acid written N to C) [SCN-ASO 30]
decrease of sodium current (manual patch clamp, normalized against cell size) [1]: ~90%
decrease of full-length SCN9A mRNA expression level (random hexamers, normalized against GAPDH) [2]: 45-75%
Tm Value, 10-mer DNA against C-Terminal [3]: 74.0 °C
Tm Value, 10-mer DNA against N-Terminal [3]: 79.0 °C
full-length Nav1.7 protein band at 220-240K ([4]; 10 zM, 24 hours): detected
Nav1.7 expression by western blot ([4]; 100 and 1,000 zM, 24 hour): markedly inhibited

Fethoc-C(1O2)TT-A(5)CC-A(5)GG-C(1O2)AA(5)-G-NH2 (antisense CTTACCAGGCAAG; all peptide nucleic acid (PNA), [C(1O2)] at 1, 10, [A(5)] at 4, 7, 12, 5' {Fethoc}, 3' {NH2}; peptide nucleic acid backbone) [AR-ASO 1]
Tm Value, 10-mer DNA against C-Terminal [3]: 81.3 °C
Tm Value, 10-mer DNA against N-Terminal [3]: 86.1 °C
AR exon levels (SYBR Green), rebound ([5]; 1 aM (1,000 zM)): rebounded close toward the negative control levels
decrease of AR exon 4-6 levels (SYBR Green) ([5]; 100 zM): 40-50%
AR band (120K size) intensity by western blot [6]: weaker than the intensity of their neighboring lysates
skipping of AR exon 5 by nested PCR ([7]; MCF7 cells of cumulus shape morphology, 30, 100 or 1,000 aM): distinctively predominant
AR exon skipping by nested PCR ([7]; MCF7 cells, 3, 30, 300 or 3,000 aM): induce the skipping of exon 5, exons 4-5, and exons 4-6
